Test results: patent publication US8389573B2, “Glycyrrhetinic acid derivatives” (Wellington Laboratories Inc., priority 2006, dated 2013)

Tests used:
[1] = system: SW480 colon cancer cells; assay: Cell proliferation assay in SW480 cells; type: cell-based; details: Homo sapiens, read-out: IC50, growth inhibition / cell proliferation
Protocol: (§1) Human colon carcinoma cell lines SW480 and HT29 were provided by Dr. Stan Hamilton, M.D. Anderson Cancer Center (Houston, Tex.); SW-480 and HT-29 cells were maintained in Dulbecco's modified Eagle's medium nutrient mixture with Ham's F-12 (DMEM/Ham's F-12; Sigma-Aldrich, St. Louis, Mo.) with phenol red supplemented with 0.22% sodium bicarbonate, 0.011% sodium pyruvate, and 5% fetal bovine serum and 10 ml/l 100× antibiotic antimycotic solution (Sigma-Aldrich). Cells were maintained at 37° C. in the presence of 5% CO2.
(§2) SW480 and HT 29 Cells (2×10^4) were plated in 12-well plates, and media were replaced the next day with DMEM/Ham's F-12 media containing 2.5% charcoal-stripped FBS and either vehicle (DMSO) or the indicated ligand and dissolved in DMSO. Fresh media and compounds were added every 48 h. Cells were counted at the indicated times using a Coulter Z1 cell counter. Each experiment was done in triplicate, and results are expressed as means±S.E. for each determination

[2] = system: HT-29 colon cancer cells; assay: Cell proliferation assay in HT-29 cells; type: cell-based; details: Homo sapiens, read-out: IC50, growth inhibition / cell proliferation
Protocol: as §1, §2

[3] = system: PPARγ; assay: PPARγ-GAL4/pGAL4 transfection and luciferase assay in HT-29 cells; type: cell-based
Protocol: (§3) The Gal4 reporter containing 5× Gal4 response elements (pGal4) was kindly provided by Dr. Marty Mayo (University of North Carolina, Chapel Hill, N.C.). Gal4 DBD-PPARγ construct (gPPARγ) was a gift of Dr. Jennifer L. Oberfield (GlaxoSmithKline Research and Development, Research Triangle Park, N.C.). PPRE3-luc construct contains three tandem PPREs with a minimal TATA sequence in pGL2.
(§4) Colon Cancer cell lines SW480 and HT29 (1×10^5 cells/well) were plated in 12-well plates in DMEM/Ham's F-12 media supplemented with 2.5% charcoal-stripped FBS. After 16 h, various amounts of DNA [i.e., Gal4Luc (0.4 μg), β-Gal (0.04 μg), Gal4PPAR and PPRE3-Luc (0.04 μg)] were transfected using LipofectAMINE™ reagent (Invitrogen) following the manufacturer's protocol. Five hours after transfection, the transfection mix was replaced with complete media containing either vehicle (DMSO) or the indicated ligand for 20 to 22 h. Cells were then lysed with 100 μl of 1× reporter lysis buffer, and 30 μl of cell extract was used for luciferase and […] assays. A LumiCount™ luminometer (PerkinElmer Life and Analytical Sciences) was used to quantitate luciferase and β-Gal activities, and the luciferase activities were normalized to β-Gal activity. Results are expressed as means±S.E. for at least three replicate determinations for each treatment group

[4] = system: PPARγ; assay: PPARγ-GAL4/GAL4-Luc or PPRE3-Luc transactivation in LNCaP cells; type: cell-based; details: 1-5 μM
Excerpt: Transfections: The Gal4 reporter construct containing 5× Gal4 response elements (pGal4) was kindly provided by Dr. Marty Mayo (University of North Carolina, Chapel Hill, N.C.). The Gal4 DBD-PPARγ construct was a gift of Dr. Jennifer L. Oberfield (Glaxo Wellcome Research and Development, Research Triangle Park, N.C.). The PPRE-luc construct contains three tandem PPREs with a minimal TATA sequence linked to the luciferase gene in pGL2. The AR-luc construct containing the −5400 to +580 region of the androgen receptor promoter was provided by Dr. Donald J. Tindall (Mayo Clinic, Rochester, Minn.), and the PSA-luc construct containing the 5.8-kilobase region of the PSA promoter was provided by Dr. Hong-Wu Cheng (University of California, Davis, Calif.). LNCaP cells (1×10^5) were seeded in 12-well plates in DMEM/Ham's F-12 media supplemented with 2.5% charcoal-stripped FBS and grown overnight. Transient transfections were performed using Lipofectamine reagent (Invitrogen) according to the protocol provided by the manufacturer. Transfection studies were performed using 0.4 μg of Gal4Luc, 0.04 μg of β-galactosidase, 0.04 μg of Gal4 DBD-PPARγ, 0.4 μg of AR-luc, and 0.3 μg of PSA-luc. Six hr after transfection, the transfection mix was replaced with complete media containing either vehicle (DMSO) or the indicated ligand for 20 to 22 hr. Cells were then lysed with 100 μl of 1× reporter lysis buffer, and 30 μl of cell extract was used for luciferase and β-galactosidase assays. A Lumicount luminometer (PerkinElmer Life and Analytical Sciences) was used to quantify luciferase and β-galactosidase activities, and the luciferase activities were normalized to β-galactosidase activity.

[5] = system: PPARγ; assay: PPARγ-GAL4/pGAL4 transfection and luciferase assay in SW480 cells; type: cell-based; details: for PPARγ transactivation: up to 30 μM
Protocol: as §3, §4

[6] = system: LNCaP human prostate carcinoma cells; assay: Cell proliferation assay in LNCaP cells; type: cell-based; details: 96 hr, read-out: IC50, inhibition of LNCaP cell growth
Protocol: Cell lines: LNCaP human prostate carcinoma cells were obtained from American Type Culture Collection (Manassas, Va.). Fetal bovine serum was obtained from JRH Biosciences, Lenexa, Kans. LNCaP cells were maintained in RPMI 1640 (Sigma Chemical, St. Louis, Mo.) supplemented with 0.22% sodium bicarbonate, 0.011% sodium pyruvate, 0.45% glucose, 0.24% HEPES, 10% FBS, and 10 mL/L of 100× antibiotic/antimycotic solution (Sigma). Cells were maintained at 37° C. in the presence of 5% CO2.
Cell Proliferation and DNA Fragmentation Assays: LNCaP prostate cancer cells (2×10^4 per well) were added to 12-well plates and allowed to attach for 24 hr. The medium was then changed to DMEM/Ham's F-12 media containing 2.5% charcoal-stripped FBS, and either vehicle (DMSO) or the indicated C-DIMs were added. Fresh medium and indicated compounds were added every 48 hr, and cells were then trypsinized and counted after 2, 4, and 6 days using a Coulter Z1 cell counter (Beckman Coulter, Fullerton, Calif.). Each experiment was done in triplicate, and results are expressed as means±S.E. for each set of three experiments. The DNA fragmentation assay was performed using a BioVision Apoptotic DNA ladder extraction kit (BioVision, Mountain View, Calif.) according to the manufacturer's protocol.

[7] = system: SW480 cells; assay: Western blot analysis in SW480 cells; type: cell-based, human
Protocol: SW-480 and HT-29 (3×10^5) cells were seeded in six-well plates in DMEM/Ham's F-12 media containing 2.5% charcoal-stripped FBS for 24 h and then treated with either the vehicle (DMSO) or the indicated compounds. Whole-cell lysates were obtained using high-salt buffer [50 mM HEPES, 500 mM NaCl, 1.5 mM MgCl2, 1 mM EGTA, 10% glycerol, and 1% Triton X-100, pH 7.5, and 5 μl/ml Protease Inhibitor Cocktail (Sigma-Aldrich)]. Protein samples were incubated at 100° C. for 2 min, separated on 10% SDS-PAGE at 120 V for 3 to 4 h in 1× running buffer (25 mM Tris-base, 192 mM glycine, and 0.1% SDS, pH 8.3), and transferred to polyvinylidene difluoride membrane (PVDF; Bio-Rad, Hercules, Calif.) at […] for 16 h at 4° C. in 1× transfer buffer (48 mM Tris-HCl, 39 mM glycine, and 0.025% SDS). The PVDF membrane was blocked in 5% TBST-Blotto (10 mM Tris-HCl, 150 mM NaCl, pH 8.0, 0.05% Triton X-100, and 5% nonfat dry milk) with gentle shaking for 30 min and was incubated in fresh 5% TBST-Blotto with 1:1000 (for caveolin-1, p27, p21, cyclin D1, Grp78), 1:500 (for KLF4, NAG-1), 1:250 (for PARP), and 1:5000 (for β-actin) primary antibody overnight with gentle shaking at 4° C. After washing with TBST for 10 min, the PVDF membrane was incubated with secondary antibody (1:5000) in 5% TBST-Blotto for 90 min. The membrane was washed with TBST for 10 min, incubated with 10 ml of chemiluminescence substrate (PerkinElmer) for 1.0 min, and exposed to Kodak X-OMAT AR autoradiography film (Eastman Kodak, Rochester, N.Y.).

[8] = molecular target: T1, PPARγ (Homo sapiens, UniProt P37231); assay: PPRE3-Luc transfection and luciferase assay in SW480 cells; type: cell-based
T1 construct: endogenous in cells; host or cells: SW480 colon cancer cells
T1 sequence (P37231 1-505): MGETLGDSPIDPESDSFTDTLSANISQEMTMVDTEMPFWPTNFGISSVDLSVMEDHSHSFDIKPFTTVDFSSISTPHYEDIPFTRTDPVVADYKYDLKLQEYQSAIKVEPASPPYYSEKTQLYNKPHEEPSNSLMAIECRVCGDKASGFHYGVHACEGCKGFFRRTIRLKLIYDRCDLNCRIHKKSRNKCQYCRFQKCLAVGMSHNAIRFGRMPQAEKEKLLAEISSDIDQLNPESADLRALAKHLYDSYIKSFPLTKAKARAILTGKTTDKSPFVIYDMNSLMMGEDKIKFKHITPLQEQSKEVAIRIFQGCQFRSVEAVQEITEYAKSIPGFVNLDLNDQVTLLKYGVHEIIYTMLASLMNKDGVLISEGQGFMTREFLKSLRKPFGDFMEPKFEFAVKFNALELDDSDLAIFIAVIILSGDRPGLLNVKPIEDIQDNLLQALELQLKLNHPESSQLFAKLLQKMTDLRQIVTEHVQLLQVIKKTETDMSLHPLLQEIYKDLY
Protocol: as §3, §4

[9] = system: Panc28 pancreatic cancer cells; assay: Growth inhibition in Panc28 pancreatic cancer cells; type: cell-based; details: Pancreatic cancer cell
[10] = system: PPARγ; details: SW480 cells, previous studies (22); cited from earlier work

Molecule | IC50 [1] [µM] | IC50 [2] [µM] | melting point [°C] | PPARγ transactivation (GAL4-PPARγ/GAL4-Luc) [3] | PPARγ-dependent transactivation (luciferase activity) [4] | PPARγ transactivation [5] | IC50 [6] [µM] | further results
COC(=O)[C@@]1(C)CC[C@]2(C)CC[C@]3(C)C(=CC(=O)[C@@H]4[C@@]5(C)C=CC(=O)C(C)(C)[C@@H]5CC[C@]43C)[C@@H]2C1 [β-DODA-Me, Methyl 3,11-dioxo-18β-oleana-1,12-dien-30-oate] | 10 | 5 to 10 | 192 to 194 | minimal activity | did not activate PPARγ | did not enhance transactivation | 10 to 15 | –
Methyl 2-iodo-3,11-dioxo-18β-oleana-1,12-diene-30-oate [β-IDODA-Me] | – | – | – | – | did not activate PPARγ | – | – | –
COC(=O)[C@@]1(C)CC[C@]2(C)CC[C@]3(C)C(=CC(=O)[C@@H]4[C@@]5(C)C=C(C#N)C(=O)C(C)(C)[C@@H]5CC[C@]43C)[C@H]2C1 [α-CDODA-Me, Methyl 2-cyano-3,11-dioxo-18α-oleana-1,12-dien-30-oate] | 0.5 | – | – | – | – | – | – | IC50 [9]: 0.5 to 1 µM
CC1(C)CC[C@]2(C(=O)O)CC[C@]3(C)[C@H](C(=O)C=C4[C@@]5(C)C=C(C#N)C(=O)C(C)(C)[C@@H]5CC[C@]43C)[C@@H]2C1 [CDDO, 2-cyano-3,12-dioxo-oleana-1, 9(11)-diene-28-oic acid, reference compound] | – | – | – | – | – | – | – | caveolin-1 protein expression ([7]; SW480, treatment for 3 days): induce caveolin-1 protein; luciferase activity with GAL4-PPARγ/GAL4-Luc [10]: induced luciferase activity

Second part, led by results:

IC50 [1] [µM] | IC50 [2] [µM] | melting point [°C] | Molecule | PPARγ transactivation (GAL4-PPARγ/GAL4-Luc) [3] | PPARγ-dependent transactivation (luciferase activity) [4] | PPARγ transactivation [5] | IC50 [6] [µM] | further results
2.5 to 5 | 1 | 195 to 197 | CC1(C)C(=O)C(C#N)=C[C@]2(C)[C@H]3C(=O)C=C4[C@@H]5C[C@@](C)(C(=O)O)CC[C@]5(C)CC[C@@]4(C)[C@]3(C)CC[C@@H]12 [β-CDODA, 2-cyano-3,11-dioxo-18β-oleana-1,12-dien-30-oic acid] | induced transactivation | – | – | – | concentration at which KLF4 is induced ([7]; SW480, 24 hr): 10 to 20 µM; PARP cleavage ([7]; SW480, 24 hr, 10-40 μM): observed; transactivation of PPRE3-Luc [8]: induced transactivation; PPRE3-Luc transactivation after cotreatment with PPARγ antagonists T007 and GW9662 ([8]; 10 μM antagonist): inhibited; induced luciferase activity after cotreatment with PPARγ antagonist T007 ([5]; 1.0, 2.5, 5.0 β-CDODA-Me or 10, 20, 30 μM β-CDODA, 10 μM T007): inhibited; increase in luciferase activity (PPARγ activation) ([5]; 20-30 μM): < 4.5 fold
25 | 20 to 30 | 270 to 275 | CC1(C)C(=O)C=C[C@]2(C)[C@H]3C(=O)C=C4[C@@H]5C[C@@](C)(C(=O)O)CC[C@]5(C)CC[C@@]4(C)[C@]3(C)CC[C@@H]12 [β-DODA, 3,11-Dioxo-18β-oleana-1,12-dien-30-oic acid] | minimal activity | – | did not enhance transactivation | > 15 | –
